AC50 data for 33 compounds are collected here from ChEMBL document CHEMBL5291721, “A preclinical secondary pharmacology resource illuminates target-adverse drug reaction associations of marketed drugs” (Nat Commun, 2023).

The target of experiment [1] is T1, Estrogen receptor (Homo sapiens, UniProt P03372).
T1 sequence (P03372 whole entry): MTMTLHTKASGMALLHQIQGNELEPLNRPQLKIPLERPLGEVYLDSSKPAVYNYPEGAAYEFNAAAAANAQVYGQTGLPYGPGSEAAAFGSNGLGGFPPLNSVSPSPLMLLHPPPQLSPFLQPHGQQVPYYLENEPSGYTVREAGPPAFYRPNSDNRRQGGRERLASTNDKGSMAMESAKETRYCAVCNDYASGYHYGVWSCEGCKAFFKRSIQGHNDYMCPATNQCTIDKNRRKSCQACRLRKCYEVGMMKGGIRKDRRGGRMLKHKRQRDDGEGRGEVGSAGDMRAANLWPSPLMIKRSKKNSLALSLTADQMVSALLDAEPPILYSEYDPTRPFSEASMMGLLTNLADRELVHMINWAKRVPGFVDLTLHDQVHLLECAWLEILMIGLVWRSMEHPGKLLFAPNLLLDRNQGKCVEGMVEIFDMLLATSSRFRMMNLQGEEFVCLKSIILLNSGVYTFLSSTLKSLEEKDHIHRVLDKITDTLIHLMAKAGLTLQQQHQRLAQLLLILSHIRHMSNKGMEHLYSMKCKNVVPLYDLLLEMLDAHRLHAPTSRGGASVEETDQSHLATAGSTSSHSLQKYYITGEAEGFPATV

Experiment [2] addresses Sodium-dependent serotonin transporter (Homo sapiens, UniProt P31645).
Experiment [3] concerns the target Histamine H2 receptor (Homo sapiens, UniProt P25021). It counts as functional, cell-based.
Experiment [4] has as its target T2, Progesterone receptor (Homo sapiens, UniProt P06401).
T2 sequence (P06401 whole entry): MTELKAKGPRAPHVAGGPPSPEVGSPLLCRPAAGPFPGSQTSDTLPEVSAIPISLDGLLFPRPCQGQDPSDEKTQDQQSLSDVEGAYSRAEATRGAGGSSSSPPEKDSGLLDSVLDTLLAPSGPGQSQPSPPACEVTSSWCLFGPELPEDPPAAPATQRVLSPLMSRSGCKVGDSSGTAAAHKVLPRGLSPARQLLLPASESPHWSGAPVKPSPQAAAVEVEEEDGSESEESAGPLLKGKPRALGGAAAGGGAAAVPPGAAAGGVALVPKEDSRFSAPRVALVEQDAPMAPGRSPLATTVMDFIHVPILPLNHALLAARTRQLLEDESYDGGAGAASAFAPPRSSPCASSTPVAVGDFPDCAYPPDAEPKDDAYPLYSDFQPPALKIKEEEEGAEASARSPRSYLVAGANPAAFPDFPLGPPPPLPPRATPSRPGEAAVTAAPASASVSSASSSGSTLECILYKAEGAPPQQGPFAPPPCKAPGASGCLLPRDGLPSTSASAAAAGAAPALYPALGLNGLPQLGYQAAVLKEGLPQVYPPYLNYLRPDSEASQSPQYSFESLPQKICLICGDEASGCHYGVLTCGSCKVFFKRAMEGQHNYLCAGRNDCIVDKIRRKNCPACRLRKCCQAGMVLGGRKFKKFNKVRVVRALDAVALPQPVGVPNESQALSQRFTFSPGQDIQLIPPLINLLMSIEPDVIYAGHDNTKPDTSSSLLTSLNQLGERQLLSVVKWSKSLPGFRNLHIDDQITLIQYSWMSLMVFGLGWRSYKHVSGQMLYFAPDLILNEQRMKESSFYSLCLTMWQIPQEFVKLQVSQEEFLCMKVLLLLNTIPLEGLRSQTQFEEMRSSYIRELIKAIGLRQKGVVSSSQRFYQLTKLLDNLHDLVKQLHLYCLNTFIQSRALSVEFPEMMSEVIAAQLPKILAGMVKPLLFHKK
It counts as functional.

For experiment [5], the target named is Cannabinoid receptor 1 (Homo sapiens, UniProt P21554). It counts as functional, cell-based.
The target of experiment [6] is T3, Muscarinic acetylcholine receptor M2 (Homo sapiens, UniProt P08172).
T3 sequence (P08172 whole entry): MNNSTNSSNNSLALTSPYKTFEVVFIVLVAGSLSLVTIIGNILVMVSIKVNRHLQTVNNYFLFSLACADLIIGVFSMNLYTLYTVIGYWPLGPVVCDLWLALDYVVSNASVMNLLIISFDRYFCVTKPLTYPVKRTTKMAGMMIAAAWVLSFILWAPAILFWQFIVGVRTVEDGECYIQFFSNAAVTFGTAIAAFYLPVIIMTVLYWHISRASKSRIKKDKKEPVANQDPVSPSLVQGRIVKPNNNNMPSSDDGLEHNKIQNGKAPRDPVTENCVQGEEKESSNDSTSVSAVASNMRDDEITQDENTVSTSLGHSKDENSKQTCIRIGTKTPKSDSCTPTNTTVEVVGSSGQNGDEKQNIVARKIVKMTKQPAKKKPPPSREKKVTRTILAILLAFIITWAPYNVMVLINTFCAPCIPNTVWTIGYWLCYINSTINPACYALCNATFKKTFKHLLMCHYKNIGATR
It counts as functional, cell-based.
Also: assay procedure not described here.

Sodium-dependent serotonin transporter, sequence (P31645 whole entry): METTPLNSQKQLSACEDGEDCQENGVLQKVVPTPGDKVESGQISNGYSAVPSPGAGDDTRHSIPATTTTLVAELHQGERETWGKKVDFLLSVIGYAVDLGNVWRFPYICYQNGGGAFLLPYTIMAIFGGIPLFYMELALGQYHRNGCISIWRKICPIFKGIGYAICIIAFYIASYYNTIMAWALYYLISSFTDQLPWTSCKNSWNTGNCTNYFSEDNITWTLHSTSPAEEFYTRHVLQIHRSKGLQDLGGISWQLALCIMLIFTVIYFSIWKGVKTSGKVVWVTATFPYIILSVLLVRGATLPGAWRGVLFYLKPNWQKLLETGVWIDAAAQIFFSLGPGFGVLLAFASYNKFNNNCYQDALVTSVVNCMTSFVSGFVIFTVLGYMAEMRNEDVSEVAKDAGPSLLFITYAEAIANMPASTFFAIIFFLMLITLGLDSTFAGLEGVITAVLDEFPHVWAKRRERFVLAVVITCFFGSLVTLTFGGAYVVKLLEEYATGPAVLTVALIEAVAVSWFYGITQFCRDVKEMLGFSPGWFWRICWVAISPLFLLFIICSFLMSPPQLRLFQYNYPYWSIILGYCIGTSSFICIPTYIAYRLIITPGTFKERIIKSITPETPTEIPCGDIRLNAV
Histamine H2 receptor, sequence (P25021 whole entry): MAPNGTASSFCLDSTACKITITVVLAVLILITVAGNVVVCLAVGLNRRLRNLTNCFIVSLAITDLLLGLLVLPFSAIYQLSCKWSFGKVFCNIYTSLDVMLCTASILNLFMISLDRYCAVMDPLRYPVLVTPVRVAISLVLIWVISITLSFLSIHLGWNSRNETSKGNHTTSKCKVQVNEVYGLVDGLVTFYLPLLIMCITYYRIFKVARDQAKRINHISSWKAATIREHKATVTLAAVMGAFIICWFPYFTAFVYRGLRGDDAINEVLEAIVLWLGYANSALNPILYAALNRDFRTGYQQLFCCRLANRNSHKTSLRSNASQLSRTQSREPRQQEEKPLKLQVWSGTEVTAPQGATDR
Cannabinoid receptor 1, sequence (P21554 whole entry): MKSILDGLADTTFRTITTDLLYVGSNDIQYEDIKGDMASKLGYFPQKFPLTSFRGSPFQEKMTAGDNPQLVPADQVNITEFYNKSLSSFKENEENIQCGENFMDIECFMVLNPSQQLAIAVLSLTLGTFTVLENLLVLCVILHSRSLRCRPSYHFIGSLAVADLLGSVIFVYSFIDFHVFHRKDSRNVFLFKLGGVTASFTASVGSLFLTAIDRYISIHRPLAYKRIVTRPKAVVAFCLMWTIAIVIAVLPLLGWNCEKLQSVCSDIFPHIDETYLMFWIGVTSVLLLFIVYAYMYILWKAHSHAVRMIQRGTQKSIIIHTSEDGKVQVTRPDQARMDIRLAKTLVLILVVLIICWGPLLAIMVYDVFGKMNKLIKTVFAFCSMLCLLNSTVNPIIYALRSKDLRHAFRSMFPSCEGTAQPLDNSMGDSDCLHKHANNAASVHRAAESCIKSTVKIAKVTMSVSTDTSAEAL

On to `C[C@@H]1C[C@H]2[C@@H]3C[C@H](F)C4=CC(=O)C=C[C@]4(C)[C@H]3[C@@H](O)C[C@]2(C)[C@@]1(O)C(=O)CO` [PARAMETHASONE], for which the AC50 in experiment [1] and in experiment [2] was over 30 µM in each case.
As for `CC(OCCN1CCCCCC1)(c1ccccc1)c1ccc(Cl)cc1` (configuration not stated) [SETASTINE], the AC50 was over 30 µM in experiment [1] and 21 µM in experiment [2].
For `Cc1ncc2c(c1O)COC2c1ccc(Cl)cc1` (configuration not stated) [CICLETANINE], in that order: over 30 µM and over 30 µM.
For `c1ccc2c(SC3=NCCN3)c[nH]c2c1` [TINAZOLINE], in that order: over 30 µM and over 30 µM.
For `CC(=O)[C@]1(N)Cc2c(O)c3c(c(O)c2[C@@H](O[C@H]2C[C@H](O)[C@H](O)CO2)C1)C(=O)c1ccccc1C3=O` [AMRUBICIN], in that order: over 30 µM and over 30 µM.
Take `CC(COc1ccccc1)NC(C)C(O)c1ccc(O)cc1` (configuration not stated) [ISOXSUPRINE]: the AC50 is over 30 µM in experiment [1] and 5.55 µM in experiment [2].
In the same order, the values of `Clc1ccc(C(Cn2ccnc2)OCc2csc3c(Cl)cccc23)c(Cl)c1` (configuration not stated) [SERTACONAZOLE] are over 30 µM and 2.89 µM.
Take `Cc1ccc(S(=O)(=O)NC(=O)NC2CCCCC2)cc1` [GLYCYCLAMIDE]: the AC50 in experiment [1] and in experiment [2] was over 30 µM each time.
As for `N#Cc1ccc(Oc2ccc3c(c2)COB3O)cc1` [CRISABOROLE], the AC50 in experiment [1] and in experiment [2] was over 30 µM throughout.
For the compound `N[C@@H](Cc1ccccc1)C(=O)O` [PHENYLALANINE], the AC50 in experiment [1] and in experiment [2] was over 30 µM each time.
For the compound `O=C(CCC/C=C\C[C@@H]1[C@@H](CC[C@@H](O)CCc2ccccc2)[C@H](O)C[C@@H]1O)OCCCCO[N+](=O)[O-]` [LATANOPROSTENE BUNOD], the AC50 in experiment [1] and in experiment [2] was over 30 µM each time.
With `COC(=O)C[C@](O)(CCCC(C)(C)O)C(=O)O[C@@H]1C(OC)=C[C@]23CCCN2CCc2cc4c(cc2[C@H]13)OCO4` [OMACETAXINE MEPESUCCINATE], the AC50 in experiment [1] and in experiment [2] was over 30 µM throughout.
On to `NC(=O)[C@@H]1CC[C@@H]2CN1C(=O)N2OS(=O)(=O)O` [AVIBACTAM], for which the half-maximal activity concentration (AC50) in experiment [1] and in experiment [2] was over 30 µM each time.
Regarding `CC(=O)[C@H]1CC[C@H]2[C@@H]3C=CC4=CC(=O)CC[C@@]4(C)[C@@H]3CC[C@]12C` [DYDROGESTERONE], the AC50 in experiment [2] was over 30 µM.
Consider `Cc1cn([C@H]2O[C@@H](CO)[C@H](O)[C@H]2F)c(=O)[nH]c1=O` [CLEVUDINE], for which the AC50 in experiment [2] was over 30 µM.
Regarding `Cc1oc(=O)oc1COC(=O)[C@@H]1N2C(=O)[C@@H](NC(=O)[C@H](N)c3ccccc3)[C@H]2SC1(C)C` [LENAMPICILLIN], the AC50 in experiment [1] and in experiment [2] was over 30 µM throughout.
For the compound `CC(C)(C)NC(=O)N[C@H](C(=O)N1C[C@H]2[C@@H]([C@H]1C(=O)NC(CC1CCC1)C(=O)C(N)=O)C2(C)C)C(C)(C)C` (some centres not stated) [BOCEPREVIR], the AC50 in experiment [1] and in experiment [2] was over 30 µM in each case.
Take `COc1ccc2c(C(=S)N(C)CC(=O)O)cccc2c1C(F)(F)F` [TOLRESTAT]: the AC50 in experiment [1] and in experiment [2] was over 30 µM in each case.
`O=S1(=O)CCN(CN2CCS(=O)(=O)NC2)CN1` [TAUROLIDINE]: the AC50 in experiment [1], in experiment [3], in experiment [4], in experiment [5], in experiment [2] and in experiment [6] was over 30 µM in each case.
In the case of `CCCSc1nc(N[C@@H]2C[C@H]2c2ccc(F)c(F)c2)c2nnn([C@@H]3C[C@H](OCCO)[C@@H](O)[C@H]3O)c2n1` [TICAGRELOR], the AC50 in experiment [1] and in experiment [2] was over 30 µM throughout.
As for `CC[N+](C)(CC)CCOC(=O)C(O)(c1ccccc1)C1CCCCC1` (configuration not stated) [OXYPHENONIUM], the AC50 in experiment [1] and in experiment [2] was over 30 µM throughout.
Regarding `O=C(O)[C@@H]1C[C@@H](O)CN1`, the AC50 in experiment [1] and in experiment [2] was over 30 µM throughout.
For `CC(=O)O[C@H]1Cc2ccccc2N(C(N)=O)c2ccccc21` [ESLICARBAZEPINE ACETATE], the AC50 in experiment [1] and in experiment [2] was over 30 µM each time.
`COc1cc(C)c2c(Oc3cccc(C(F)(F)F)c3)c(OC)cc(NC(C)CCCN)c2n1` (configuration not stated) [TAFENOQUINE]: the values for the AC50 in experiment [1] and in experiment [2] were 18.4 µM and 10.3 µM, respectively.
For `CC1(CCN2CCCCC2)C(=O)CCc2ccccc21` (configuration not stated) [NEPINALONE], in that order: over 30 µM and over 30 µM.
For `CCC[C@H](N[C@@H](C)C(=O)N1[C@H](C(=O)O)C[C@@H]2CCCC[C@@H]21)C(=O)OCC` [PERINDOPRIL], in that order: over 30 µM and over 30 µM.
For `COc1ccc(OC)c(C(O)C(C)N)c1` (configuration not stated) [METHOXAMINE], in that order: over 30 µM and over 30 µM.
Regarding `CC1(C)S[C@@H]2[C@H](/N=C/N3CCCCCC3)C(=O)N2[C@H]1C(=O)O` [AMDINOCILLIN], the AC50 in experiment [1] and in experiment [2] was over 30 µM throughout.
As for `CN1CCCN(C(c2ccccc2)c2ccc(Cl)cc2)CC1` (configuration not stated) [HOMOCHLORCYCLIZINE], the AC50 in experiment [1] was over 30 µM; in experiment [2], 2.98 µM.
On to `C[C@H](N[C@@H](CCc1ccccc1)C(=O)O)C(=O)N1Cc2ccccc2C[C@H]1C(=O)O`, for which the AC50 in experiment [1] and in experiment [2] was over 30 µM in each case.
In the case of `CCCn1cnc2c1c(=O)n(CCCCC(C)=O)c(=O)n2C` [PROPENTOFYLLINE], the results for the AC50 in experiment [1] and in experiment [2] were 28.9 µM and over 30 µM, respectively.
For `Cc1cc2c(cc1S(N)(=O)=O)S(=O)(=O)CCC2`, in that order: over 30 µM and over 30 µM.
Turning to `CC(=O)OCC(=O)[C@@]1(O)CC[C@H]2[C@@H]3CCC4=CC(=O)CC[C@]4(C)[C@H]3[C@@H](O)C[C@@]21C` [HYDROCORTISONE ACETATE], in experiment [2], the AC50 is over 30 µM.

By AC50 is commonly meant the midpoint of the concentration-response curve, whichever way the signal moves.
